Holding throughout (type): physicochemical
Data set [1] can be described thus: Equilibrium (thermodynamic) solubility in fed state human intestinal fluids. Particulars: for solubility Conc / solubility at 24 h: Fed HR pool human intestinal fluids, 37° C., 24 hours; for solubility at 24 h: human, 37 °C, plasma or biological fluid, thermodynamic from solid. As for the experimental part: Determination of the equilibrium solubility of rilematovir in its free base form and its hemi (L)-tartrate form in fed state human intestinal fluids.
The thermodynamic solubility of rilematovir and the hemi (L)-tartrate form of rilematovir was determined using human intestinal fluids obtained from human volunteers in fed state. The pools of human intestinal fluids were prepared from individual intestinal aspirates collected among healthy volunteers under fed state conditions. Fed HR (high responders) pools were build up from duodenal samples in the fed state from volunteers with a clear postprandial bile salt increase.
A small magnetic stirrer bar (about 5 mm in length) and 300 μl of the respective human intestinal fluids at 37° C. were added to the Eppendorf tubes containing an excess of test compound. The mixtures were vortexed for a few seconds and placed on a magnetic stirrer plate (100 rpm) at 37° C.
After 24 hours, the Eppendorf tubes were centrifuged for 5 minutes at 12000 rpm (to separate dissolved from non-dissolved material). 10 µl of the supernatant was diluted into 100 μl methanol), well mixed and centrifuged for 1 minute to separate precipitated protein fraction. The test compound was quantified in the resulting supernatant using UPLC-UV quantification.
The pH was measured at the end of the experiment for each condition (pHend in Table 1).

Data set [2] can be described thus: Kinetic solubility in biorelevant media (FaSSIF, FeSSIF) with and without HPMC E5. Particulars: for solubility kinetic at 30 min / solubility kinetic at 60 min / solubility kinetic at 120 min: thermodynamic from solid, as μg rilematovir/mL; for solubility kinetic at 30 min: read-out: kinetic solubility, concentration at 30 minutes; for solubility kinetic at 60 min: read-out: kinetic solubility, concentration at 60 minutes; for solubility kinetic at 120 min: read-out: kinetic solubility, concentration at 120 minutes. On the procedure: The kinetic solubility of rilematovir and the hemi (L)-tartrate form of rilematovir in different biorelevant medium (FaSSIF and FeSSIF) in the presence or absence of HPMC E5 was analysed.
An excess amount of rilematovir or the hemi (L)-tartrate form of rilematovir was added to biorelevant medium (approximately 5 mg solid/mL medium was used).
The media were stirred at 150 rpm at a temperature of 37° C. Time-dependent measurements were performed by removing 10 mL aliquots after 30 minutes, 1 hour and 2 hours. Undissolved solid material in the aliquot was removed using a Whatman SPARTAN RC syringe filter (diameter: 30 mm; pore size: 0.2 μm). Afterwards, a suitable dilution was made in NMP/water 30/70; v/v to avoid precipitation. The concentration of rilematovir, or the hemi (L)-tartrate form of rilematovir, in solution was determined using UPLC-UV.

Data set [3] in a line: Intrinsic dissolution rate (IDR), μDISS Profiler. Particulars: for IDR: 37.0 ± 0.5° C., 100 rpm. On the procedure:
The intrinsic dissolution rate (IDR) describes how fast a compound is released from its solid-state form into solution. The intrinsic dissolution rate is defined as the rate of dissolution of a pure active pharmaceutical ingredient when surface area, stirring speed, pH and ionic-strength of the dissolution medium are kept constant. Thus, it is measured as the release of API from a flat and well-defined surface area into an aqueous solution at a given pH value. By exposing the surface area of a material to an appropriate dissolution medium while maintaining constant temperature, stirring rate, and pH, the intrinsic dissolution rate can be determined. Typically the intrinsic dissolution is expressed in terms of mg per minute per cm^2.
Intrinsic Dissolution Method Parameters:
Pellet Compression Parameters

Data set [4] can be described thus: Long term storage of liquid aqueous suspension (disproportionation, polymorph conversion). On the procedure:
A liquid aqueous suspension comprising Form 1 of the hemi (L)-tartrate form of rilematovir as described in Examples 10, 11, 14 or 15 was stored in a sealed glass vial at a temperature of 30° C., 40° C., and 50° C. Over a period of 8 months samples were taken and analysed (e.g. by XPRD or solid state ^19F-NMR spectroscopy).
FIG. 6 is the solid state ^19F-NMR spectrum of Form 1 having peaks at −70.004 ppm and −73.248 ppm. FIG. 7 is the solid state ^19F-NMR spectrum of Form 3 having a peak at −70.122 ppm.

[5] abbreviates: FaSSIF with HPMC E5, aqueous with cosolvent or surfactant or cyclodextrin, FaSSIF pH 6.5, HPMC E5 1.39 mg/mL, 37° C.
[6] abbreviates: FeSSIF with HPMC E5, aqueous with cosolvent or surfactant or cyclodextrin, FeSSIF pH 5.0, HPMC E5 1.39 mg/mL, 37° C.
Where [7] appears, read: FaSSIF pH 6.5, no HPMC E5, 37° C.
The mark [8] stands for this setting: FeSSIF pH 5.0, no HPMC E5, 37° C.
The mark [9] stands for this setting: aqueous with cosolvent or surfactant or cyclodextrin, FaSSIF pH 6.5, HPMC E5 1.39 mg/mL, 37° C.
[10] abbreviates: aqueous with cosolvent or surfactant or cyclodextrin, FeSSIF pH 5.0, HPMC E5 1.39 mg/mL, 37° C.

The record followed here is patent US12145933B2, “Hemi (L)-tartrate forms of 3-({5-chloro-1-[3-(methylsulfonyl)propyl]-1H-indol-2-yl}methyl)-1-(2,2,2-trifluoroethy)-1,3-dihydro-2H-imidazo[4,5-C]pyridin-2-one and pharmaceutical compositions comprising the same” (Janssen Sciences Ireland Unlimited Company, priority 2020, dated 2024).

Converted amounts (≈) assume the structure as drawn. “And” between values parts separate entries of the source, which are not always exact repeats. Equal values may be shown once. “Also recorded” adds a separate entry of the source. Read-outs that look alike come from different tables or passages of the source.

Consider `CS(=O)(=O)CCCn1c(Cn2c(=O)n(CC(F)(F)F)c3ccncc32)cc2cc(Cl)ccc21` [rilematovir, 3-({5-chloro-1-[3-(methylsulfonyl)propyl]-1H-indol-2-yl}methyl)-1-(2,2,2-trifluoroethyl)-1,3-dihydro-2H-imidazo[4,5-c]pyridin-2-one], for which, in data set [1] (single determinations, listed as free base), the “solubility Conc” value is 36.80 µg/mL and 32.50 µg/mL. Besides, the solubility at 24 h came to 34.4 µg/mL (≈ 68.7 µM) in data set [1] (fed state human intestinal fluids (Fed HR pool), average of three, read-out: solubility Average) and 34 µg/mL (≈ 67.8 µM) in data set [1] (fed state human intestinal fluids (Fed HR pool), single determinations, read-out: solubility Conc). Moreover, the solubility kinetic at 30 min in data set [2] (setting [5]) was determined as 1.2 µg/mL (≈ 2.4 µM); in data set [2] (setting [6]), 12.3 µg/mL (≈ 24.6 µM); in data set [2] (setting [7]), 1.1 µg/mL (≈ 2.2 µM); in data set [2] (setting [8]), 12.5 µg/mL (≈ 25 µM). In addition, the solubility kinetic at 60 min in data set [2] (setting [5]) was 1.3 µg/mL (≈ 2.6 µM); in data set [2] (setting [6]), 13.4 µg/mL (≈ 26.8 µM); in data set [2] (setting [7]), 1.1 µg/mL (≈ 2.2 µM); in data set [2] (setting [8]), 13.2 µg/mL (≈ 26.4 µM). In addition, the solubility kinetic at 120 min in data set [2] (setting [5]) stood at 1.5 µg/mL (≈ 2.99 µM); in data set [2] (setting [6]), 13.9 µg/mL (≈ 27.7 µM); in data set [2] (setting [7]), 1.2 µg/mL (≈ 2.4 µM); in data set [2] (setting [8]), 13.7 µg/mL (≈ 27.3 µM). The IDR in data set [3] (Medium: 0.01N HCl) is reported as 8.98 μg/min/cm^2; in data set [3] (Medium: Blank FaSSIF) it was 3.06 μg/min/cm^2; in data set [3] (Medium: FASSIF), below 1 μg/min/cm^2.
With `CS(=O)(=O)CCCn1c(Cn2c(=O)n(CC(F)(F)F)c3ccncc32)cc2cc(Cl)ccc21.O=C(O)C(O)C(O)C(=O)O` [hemi (L)-tartrate form of rilematovir], the “solubility Conc” value in data set [1] (single determinations, listed as hemi tartrate form) is 122.93 µg/mL and 126.92 µg/mL. Besides, the “solubility in fed state human intestinal fluids relative to free base form” value in data set [1] (fed state human intestinal fluids) was “more than three times higher”. Moreover, the solubility at 24 h was found to be 117 µg/mL in data set [1] (average of three, read-out: solubility Average) and 102 µg/mL in data set [1] (single determinations, read-out: solubility Conc). Besides, the solubility kinetic at 30 min in data set [2] (setting [9]) came out at 108 µg/mL; in data set [2] (setting [10]), 1010 µg/mL; in data set [2] (setting [7]), 4.4 µg/mL; in data set [2] (setting [8]), 82.8 µg/mL. In addition, the solubility kinetic at 60 min in data set [2] (setting [9]) is 93.1 µg/mL; in data set [2] (setting [10]), 853 µg/mL; in data set [2] (setting [7]) it was 3.4 µg/mL; in data set [2] (setting [8]), 67.1 µg/mL. The solubility kinetic at 120 min in data set [2] (setting [9]) is 75.9 µg/mL; in data set [2] (setting [10]), 689 µg/mL; in data set [2] (setting [7]), 3 µg/mL; in data set [2] (setting [8]) it was 58.6 µg/mL. Moreover, the “kinetic solubility relative to free base” value in data set [2] (biorelevant media, absence of the suspending agent HPMC) is listed as “three (in FaSSIF) to six (in FeSSIF) times higher”. Also, the IDR in data set [3] (Medium: 0.01N HCl) is given as 147 μg/min/cm^2; in data set [3] (Medium: Blank FaSSIF), 5.45 μg/min/cm^2; in data set [3] (Medium: FASSIF), 2.10 μg/min/cm^2. Further, the “intrinsic dissolution rate (IDR) compared with free base form” value in data set [3] (three biorelevant media) is on record as “higher than the free base form of rilematovir”. Also, the “disproportionation in liquid aqueous suspension” value in data set [4] (sealed glass vial, 30° C., 40° C., 50° C., 8 months, XRPD or solid state 19F-NMR) was “does not disproportionate; also recorded: no disproportionation has been observed”. Further, the “polymorph conversion in liquid aqueous suspension” value in data set [4] (storage of aqueous suspension over time, XRPD and solid state 19F-NMR) is given as “over time Form 1 converts into Form 3”.
With `CS(=O)(=O)CCCn1c(Cn2c(=O)n(CC(F)(F)F)c3ccncc32)cc2cc(Cl)ccc21.CS(=O)(=O)CCCn1c(Cn2c(=O)n(CC(F)(F)F)c3ccncc32)cc2cc(Cl)ccc21.O=C(O)C(=O)O` [hemi oxalic co-crystal], the results for the IDR in data set [3] (Medium: 0.01N HCl), in data set [3] (Medium: Blank FaSSIF) and in data set [3] (Medium: FASSIF) were 32.77 μg/min/cm^2, 1.62 μg/min/cm^2 and 1.18 μg/min/cm^2, respectively.
